Experimental data as given in ChEMBL document CHEMBL1201862, “PubChem BioAssay data set” (2004).
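1) Cells in 96-well plates. 2) Compound, 48 h, 5 concentrations. 3) Linear interpolation between surrounding doses. 4) Unreached endpoint = highest concentration. GI50 marks 50% less growth.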 The source made the active and inactive calls. Rule as the data show it: active = GI50 up to about 1.1 µM and inactive = higher.

How the values were obtained:
Experiment in all cases: DTP human tumour cell line panel, 48 h
SW-620 = tested on: SW-620
CCRF-CEM = tested on: CCRF-CEM
OVCAR-3 = tested on: OVCAR-3
SK-OV-3 = tested on: SK-OV-3
OVCAR-4 = tested on: OVCAR-4
UACC-257 = tested on: UACC-257
UO-31 = tested on: UO-31
OVCAR-8 = tested on: OVCAR-8
MDA-N = tested on: MDA-N
SK-MEL-5 = tested on: SK-MEL-5
UACC-62 = tested on: UACC-62
TK-10 = tested on: TK-10
Hs-578T = tested on: Hs-578T
M14 = tested on: M14
SR = tested on: SR
SN12C = tested on: SN12C
PC-3 = tested on: PC-3
HOP-62 = tested on: HOP-62
ACHN = tested on: ACHN

Compound | GI50 (SW-620) | GI50 (CCRF-CEM) | GI50 (OVCAR-3) | GI50 (SK-OV-3) | GI50 (OVCAR-4) | GI50 (UACC-257) | GI50 (UO-31) | GI50 (OVCAR-8) | GI50 (MDA-N) | GI50 (SK-MEL-5) | GI50 (UACC-62) | GI50 (TK-10) | GI50 (Hs-578T) | GI50 (M14) | GI50 (SR) | GI50 (SN12C) | GI50 (PC-3) | GI50 (HOP-62) | GI50 (ACHN)
COc1ccccc1-n1c(=O)n(C)c(=O)n1C(C)(C)C | > 100 µM (inactive) | > 100 µM (inactive) | > 100 µM (inactive) | > 100 µM (inactive) | > 100 µM (inactive) | > 100 µM (inactive) | > 100 µM (inactive) | > 100 µM (inactive) | > 100 µM (inactive) | > 100 µM (inactive) | > 100 µM (inactive) | > 100 µM (inactive) | > 100 µM (inactive) | > 100 µM (inactive) | > 100 µM (inactive) | > 100 µM (inactive) | > 100 µM (inactive) | – | –
N/C(CSCCSC/C(N)=N/O)=N\O | > 100 µM (inactive) | > 100 µM (inactive) | > 100 µM (inactive) | > 100 µM (inactive) | > 100 µM (inactive) | – | > 100 µM (inactive) | – | > 100 µM (inactive) | > 100 µM (inactive) | > 100 µM (inactive) | > 100 µM (inactive) | > 100 µM (inactive) | > 100 µM (inactive) | > 100 µM (inactive) | > 100 µM (inactive) | > 100 µM (inactive) | > 100 µM (inactive) | > 100 µM (inactive)
Cc1cc(O)c(C(c2cccnc2)c2c(O)cc(C)[nH]c2=O)c(=O)[nH]1 | – | > 100 µM (inactive) | > 100 µM (inactive) | > 100 µM (inactive) | > 100 µM (inactive) | > 100 µM (inactive) | > 100 µM (inactive) | > 100 µM (inactive) | > 100 µM (inactive) | > 100 µM (inactive) | > 100 µM (inactive) | > 100 µM (inactive) | > 100 µM (inactive) | > 100 µM (inactive) | > 100 µM (inactive) | > 100 µM (inactive) | > 100 µM (inactive) | > 100 µM (inactive) | > 100 µM (inactive)
O=C(O)Cc1cccc2c1OC(c1ccccc1)C(C(=O)c1ccccc1)C2=O (configuration not stated) | 37.8 µM (inactive) | 41.2 µM (inactive) | > 100 µM (inactive) | 2.07 µM (inactive) | – | > 100 µM (inactive) | 88.9 µM (inactive) | 46.6 µM (inactive) | 33.8 µM (inactive) | > 100 µM (inactive) | 13.4 µM (inactive) | 26.5 µM (inactive) | > 100 µM (inactive) | – | 39.3 µM (inactive) | 45.8 µM (inactive) | > 100 µM (inactive) | > 100 µM (inactive) | 40.3 µM (inactive)
N=C(N)N/N=C\c1ccc(C2CCNCC2)cc1 | > 100 µM (inactive) | > 100 µM (inactive) | > 100 µM (inactive) | > 100 µM (inactive) | > 100 µM (inactive) | > 100 µM (inactive) | > 100 µM (inactive) | > 100 µM (inactive) | > 100 µM (inactive) | > 100 µM (inactive) | > 100 µM (inactive) | > 100 µM (inactive) | > 100 µM (inactive) | > 100 µM (inactive) | > 100 µM (inactive) | > 100 µM (inactive) | > 100 µM (inactive) | > 100 µM (inactive) | > 100 µM (inactive)
Cc1cccc(Nc2nn3c(=O)c4c5c(sc4nc3s2)CCCC5)c1 | 91.2 µM (inactive) | 56.5 µM (inactive) | 25.9 µM (inactive) | 45.8 µM (inactive) | 16 µM (inactive) | 21.5 µM (inactive) | > 100 µM (inactive) | 12.4 µM (inactive) | 15 µM (inactive) | 2.4 µM (inactive) | 0.647 µM (active) | 37.7 µM (inactive) | 6.04 µM (inactive) | 3.89 µM (inactive) | 25.4 µM (inactive) | 66.7 µM (inactive) | 38.7 µM (inactive) | 28.4 µM (inactive) | 7.71 µM (inactive)
CCCCCCCCCCCCCCCCCC(=O)OCC(COC(=O)CCCN)OC(=O)CCCN (configuration not stated) | 19.6 µM (inactive) | 28.8 µM (inactive) | 19.3 µM (inactive) | 18.3 µM (inactive) | 22 µM (inactive) | 19.6 µM (inactive) | 1.96 µM (inactive) | 18.5 µM (inactive) | 19.9 µM (inactive) | – | 18.2 µM (inactive) | 20.8 µM (inactive) | 19.2 µM (inactive) | 16.9 µM (inactive) | 23.6 µM (inactive) | 17.8 µM (inactive) | 17.1 µM (inactive) | 17.4 µM (inactive) | > 100 µM (inactive)
C=C(C)C(=O)O[C@H]1C[C@@]23O[C@@H]2CCC(=C[C@H]2OC(=O)C(=C)[C@H]12)COC3O (some centres not stated) | 17.9 µM (inactive) | 17.2 µM (inactive) | 49.5 µM (inactive) | > 100 µM (inactive) | > 100 µM (inactive) | > 100 µM (inactive) | – | 39.6 µM (inactive) | 49.2 µM (inactive) | > 100 µM (inactive) | 54.1 µM (inactive) | > 100 µM (inactive) | > 100 µM (inactive) | 57.5 µM (inactive) | 24.7 µM (inactive) | 49 µM (inactive) | > 100 µM (inactive) | > 100 µM (inactive) | 39.9 µM (inactive)
Cc1cccc(/C=C2\CCCc3ccccc3C2=O)c1 | 16.8 µM (inactive) | 13.7 µM (inactive) | 26.3 µM (inactive) | 62.4 µM (inactive) | 19.1 µM (inactive) | 21.6 µM (inactive) | 26.8 µM (inactive) | 19.1 µM (inactive) | 19.8 µM (inactive) | – | 14 µM (inactive) | 27.4 µM (inactive) | 15.8 µM (inactive) | 17.9 µM (inactive) | 15 µM (inactive) | 17.9 µM (inactive) | 27.2 µM (inactive) | 28.8 µM (inactive) | 26.5 µM (inactive)
CNC(=S)N/N=C(\C)c1cc(OC)ccc1O | > 100 µM (inactive) | > 27.9 µM (inactive) | > 100 µM (inactive) | > 100 µM (inactive) | > 100 µM (inactive) | > 100 µM (inactive) | > 100 µM (inactive) | > 100 µM (inactive) | > 100 µM (inactive) | > 44.3 µM (inactive) | > 100 µM (inactive) | – | > 100 µM (inactive) | > 92.5 µM (inactive) | 43.5 µM (inactive) | > 100 µM (inactive) | > 96.4 µM (inactive) | > 100 µM (inactive) | > 100 µM (inactive)
CCCCCC(C)(C)CCC(=O)OC1OC(COC2OC(COC3OC(CO)C(O)C(O)C3O)C(O)C(O)C2O)C(O)C(O)C1O (configuration not stated) | > 100 µM (inactive) | > 100 µM (inactive) | > 100 µM (inactive) | > 100 µM (inactive) | – | > 100 µM (inactive) | > 100 µM (inactive) | > 100 µM (inactive) | > 100 µM (inactive) | > 100 µM (inactive) | > 100 µM (inactive) | > 100 µM (inactive) | > 100 µM (inactive) | > 100 µM (inactive) | > 100 µM (inactive) | > 100 µM (inactive) | > 100 µM (inactive) | > 100 µM (inactive) | > 100 µM (inactive)
